Columns and labels:
HL-60 [1] = assay: Inhibition of HL-60 monocyte cell proliferation; Range = 0.3-0.7 uM; format: functional; conditions: Homo sapiens, read-out: ED50 (the source's name)
[2] = biological target: T1, Protein kinase C alpha type (Homo sapiens, UniProt P17252); assay: (§1) Displacement of [3H]PDBu from human recombinant Protein kinase C alpha
[3] = biological target: T1, Protein kinase C alpha type; assay: as §1; remark: listed apart in the source
HL-60 [4] = assay: Inhibition of HL-60 monocyte cell proliferation; Range = 1-8 uM; format: functional; conditions: Homo sapiens, read-out: ED50 (the source's name)
HL-60 [5] = assay: Inhibition of HL-60 monocyte cell proliferation; format: functional; conditions: Homo sapiens, read-out: ED50 (the source's name)

SMILES	EC50 (HL-60 [1])	Ki [2]	Ki [3]	EC50 (HL-60 [4])	EC50 (HL-60 [5])
CCCCC1(CCCC)CC[C@H]2CC(=O)N[C@H](CO)C[C@]2(C)C1	700 nM	60 nM	80 nM		
CCCCC1(CCCC)CC[C@H]2CC(=O)N[C@@H](CO)C[C@]2(C)C1	700 nM	190 nM			
CCCCC1(CCCC)CC[C@H]2[C@H](C)C(=O)N[C@H](CO)C[C@]2(C)C1		21 nM			150 nM
CCCCCCCC[C@@H]1C(=O)N[C@H](CO)C[C@]2(C)CC(CCCC)(CCCC)CC[C@@H]12		11 nM			150 nM

Other lines, results leading:

EC50 (HL-60 [1])	Ki [2]	Ki [3]	EC50 (HL-60 [4])	EC50 (HL-60 [5])	SMILES
	> 500 nM		8000 nM		CC(C)CCCC(C)[C@H]1CC[C@H]2[C@@H]3CC[C@H]4CC(=O)N[C@@H](CO)C[C@]4(C)[C@H]3CC[C@]12C (some centres undefined)
	17 nM			150 nM	CCCC[C@@H]1C(=O)N[C@H](CO)C[C@]2(C)CC(CCCC)(CCCC)CC[C@@H]12
	> 500 nM		8000 nM		C[C@@]12CCC[C@H]1[C@@H]1CC[C@H]3CC(=O)N[C@@H](CO)C[C@]3(C)[C@H]1CC2
	> 500 nM		8000 nM		C[C@@]12CCC[C@H]1[C@@H]1CC[C@H]3CC(=O)N[C@H](CO)C[C@]3(C)[C@H]1CC2
	> 500 nM		8000 nM		CC(C)CCCC(C)[C@H]1CC[C@H]2[C@@H]3CC[C@H]4CC(=O)N[C@H](CO)C[C@]4(C)[C@H]3CC[C@]12C (some centres undefined)

Source: ChEMBL document CHEMBL1132013, “Synthesis, computer modeling and biological evaluation of novel protein kinase C agonists based on a 7-membered lactam moiety” (Bioorg Med Chem Lett, 1999)
